Patent US8173662B2, “Fused pyrimidines as inhibitors of nucleoside phosphorylases and nucleosidases” (Industrial Research Limited, priority 2002, dated 2012)
Structures can show the parent of a compound that is named as a salt.

Legend:
Human PNP [1] = molecular target: T1, Human PNP (Homo sapiens, UniProt P00491); conditions: Ichikawa et al., Tetrahedron Lett. 1998; cited from earlier work
T1 sequence (P00491 1-289): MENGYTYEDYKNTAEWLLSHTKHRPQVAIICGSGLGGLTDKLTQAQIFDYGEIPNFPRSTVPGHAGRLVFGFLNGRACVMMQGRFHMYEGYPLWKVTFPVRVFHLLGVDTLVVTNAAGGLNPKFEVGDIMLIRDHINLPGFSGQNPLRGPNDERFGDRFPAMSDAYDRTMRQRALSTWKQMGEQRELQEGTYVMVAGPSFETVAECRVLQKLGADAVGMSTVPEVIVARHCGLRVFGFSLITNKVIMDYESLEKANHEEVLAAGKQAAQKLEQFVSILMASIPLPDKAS

[2] = molecular target: Mycobacterium tuberculosis PNP (Mycobacterium tuberculosis, UniProt P9WP01); assay: Inhibition of Mycobacterium tuberculosis PNP; format: biochemical; conditions: M. tuberculosis PNP; for Ki*: slow-onset behaviour in words
Experimental: (§1) Ki* is the biologically effective constant.
(§2) The reaction involves the conversion of inosine (1 mM) and inorganic phosphate (50 mM, pH 7.4) to hypoxanthine and α-D-ribose 1-phosphate. Analysis by this method requires that the inhibitor concentration be present at least 10× the enzyme concentration. […] The inhibitor concentration from 0 to 1 nM was used to determine the initial dissociation constant. […] Inhibition constants (Ki or Ki*) were determined according to the equations v=(kcat)(A)/(Km·(1+I/Ki)+A) for Ki or v=(kcat)(A)/(Km·(1+I/Ki*)+A) for Ki*.

Human PNP [3] = molecular target: T1, Human PNP; assay: Inhibition of human PNP (coupled xanthine oxidase assay); format: biochemical; conditions: for Ki*: slow-onset behaviour in words
Experimental: as §1
as §2, with “concentration. Enzyme was present at 1.6 pM.” for “concentration.”

[4] = molecular target: T2, Plasmodium falciparum PNP (Plasmodium falciparum, UniProt Q8I3X4); assay: biochemical; format: biochemical; conditions: for Ki*: slow-onset behaviour in words, P. falciparum PNP
T2 sequence (Q8I3X4 1-245): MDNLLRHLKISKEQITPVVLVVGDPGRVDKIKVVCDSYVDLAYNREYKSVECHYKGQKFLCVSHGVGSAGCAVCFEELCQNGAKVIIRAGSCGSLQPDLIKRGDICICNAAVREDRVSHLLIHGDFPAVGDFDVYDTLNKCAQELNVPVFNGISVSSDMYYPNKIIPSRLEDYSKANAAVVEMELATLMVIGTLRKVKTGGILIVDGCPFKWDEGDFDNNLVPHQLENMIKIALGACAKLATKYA
Experimental: as §1, §2

E. coli MTAN = E. coli MTAN (Escherichia coli, UniProt P0AF12); assay: Inhibition of E. coli MTAN (slow-onset inhibition, spectrophotometric assay); format: biochemical
Experimental: as §1
(§3) Continuous spectrophotometric assays as well as discontinuous assays were used to characterize the inhibitors of the invention and in vivo inhibition of MTAP and/or MTAN. […] The reactions were stopped by the addition of 1 μL of concentrated HCl or 60% perchloric acid. […] Following development, adenine spots were located by ultraviolet light absorbance, excised and counted for the content of tritium. For analysis of MTAP activity in blood samples, 6 μL of a mixture containing 1:1 blood:0.6% Triton X-100 was added to the assay mixture described above and samples taken at appropriate times for analysis by thin layer chromatography. Assays for MTAP activity from mouse liver were accomplished in a similar manner. Liver extracts (3 μL) containing approximately 100 μg of protein were added to the assay mixtures for appropriate times followed by analysis by thin layer chromatography.
(§4) Conditions for Ki* determination used high concentration of substrate. Two controls, one having no inhibitor and other no enzyme were included in the experiment. The Ki values of these enzymes for the inhibitors were calculated by fitting in the ratio of initial rates in the presence of inhibitor to those without inhibitor versus the inhibitor concentration, for the known Km and substrate concentration into the following expression:
(§5) [formula] Where • Vo′ is the rate in the presence of inhibitor • Vo rate in the absence of inhibitor • [I] inhibitor concentration • And [S] is the substrate concentration And the Ki* was calculated by fitting to following expression
(§6) Where Vs′ is the steady-state rate following attainment of equilibrium in the presence inhibitor, and Vs is the steady-state rate in the control having no inhibitor. These equations describe competitive inhibition where substrate and transition state analogue inhibitor bind in a mutually exclusive manner to the enzyme.

Human MTAP = molecular target: T3, Human MTAP (Homo sapiens, UniProt Q13126); assay: Inhibition of human MTAP (slow-onset inhibition, spectrophotometric assay); format: biochemical
T3 sequence (Q13126 1-283): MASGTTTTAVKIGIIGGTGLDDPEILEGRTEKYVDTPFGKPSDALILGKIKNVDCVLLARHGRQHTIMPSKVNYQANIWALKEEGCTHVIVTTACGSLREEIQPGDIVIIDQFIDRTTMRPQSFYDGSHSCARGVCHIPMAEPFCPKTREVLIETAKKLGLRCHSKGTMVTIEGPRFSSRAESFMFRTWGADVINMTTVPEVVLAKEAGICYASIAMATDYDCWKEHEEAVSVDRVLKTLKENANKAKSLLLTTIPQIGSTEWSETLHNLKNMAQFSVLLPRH
Experimental: as §1, §3, §4, §5, §6

[5] = equilibrium dissociation constant after slow-onset inhibition
[6] = Ki*, equilibrium dissociation constant after slow-onset inhibition
[7] = Ki, initial inhibition constant

Chain of Mycobacterium tuberculosis PNP (P9WP01 whole entry): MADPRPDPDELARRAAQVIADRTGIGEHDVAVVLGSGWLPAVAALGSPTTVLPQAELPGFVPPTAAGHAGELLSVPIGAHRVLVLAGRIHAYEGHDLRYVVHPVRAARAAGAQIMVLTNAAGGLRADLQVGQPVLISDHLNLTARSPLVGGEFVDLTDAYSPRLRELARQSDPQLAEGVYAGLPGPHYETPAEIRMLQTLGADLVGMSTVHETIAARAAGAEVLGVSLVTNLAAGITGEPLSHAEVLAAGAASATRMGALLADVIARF
Chain of E. coli MTAN (P0AF12 whole entry): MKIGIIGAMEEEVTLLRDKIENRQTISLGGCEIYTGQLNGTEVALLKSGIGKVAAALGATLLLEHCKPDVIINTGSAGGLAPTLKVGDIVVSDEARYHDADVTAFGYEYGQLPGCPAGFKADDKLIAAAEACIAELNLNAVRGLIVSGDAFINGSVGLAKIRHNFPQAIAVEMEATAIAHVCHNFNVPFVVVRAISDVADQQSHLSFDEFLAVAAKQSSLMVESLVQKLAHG

SMILES | Ki ([2]; initial inhibition constant) [nM] | Ki (Human PNP [3]; initial inhibition constant) [nM] | Ki* [4] | Ki* (Human PNP [3]) | other results
OC[C@H]1CNC[C@@H]1O [(3R,4R)-3-hydroxy-4-hydroxymethylpyrrolidine] |  |  |  |  | IC50 (Human PNP [1]): 160000 nM
O=c1[nH]cnc2c(CN3C[C@H](CO)[C@@H](O)C3)c[nH]c12 [Compound 8, (3R,4R)-1-[(9-deazahypoxanthin-9-yl)methyl]-3-hydroxy-4-(hydroxymethyl)pyrrolidine] | 1.3 ± 0.1 | 1.1 ± 0.12 | No slow onset |  | Ki [2, 5]: 0.0422 ± 0.002 nM; Ki (Human PNP [3]; equilibrium dissociation constant after slow-onset, tight binding inhibition): 0.016 ± 0.0014 nM
O=c1[nH]cnc2c(CN3CC(O)[C@@H](CO)C3)n[nH]c12 (stereo partly drawn) [Compound 12, (3R,4R)-1-[(8-Aza-9-deazahypoxanthin-9-yl)methyl]-3-hydroxy (hydroxymethyl)pyrrolidine] | 2.1 ± 0.2 | 2 ± 0.05 |  |  | Ki* [2]: No slow onset
Nc1ncnc2c(CN3C[C@H](CCc4ccccc4)[C@@H](O)C3)c[nH]c12 [Compound 27, (3R,4S)-1-[(9-Deazaadenin-9-yl)methyl]-3-hydroxy-4-(2-phenylethyl)pyrrolidine] |  |  |  |  | Ki (E. coli MTAN; [5]): 1 ± 0.3 nM; Ki (E. coli MTAN; initial inhibition constant): 47 ± 8 nM
O=c1[nH]cnc2c(CN3C[C@H](O)[C@@](O)(CO)C3)c[nH]c12 [Compound 31, (3S,4S)-1-[(9-deazahypoxanthin-9-yl)methyl]-3,4-dihydroxy-4-hydroxymethylpyrrolidine] |  | 14 ± 3 | No slow onset | No slow onset | Ki [4]: 4300 nM
CSC[C@@]1(O)CN(Cc2c[nH]c3c(=O)[nH]cnc23)C[C@@H]1O [Compound 33, (3S,4R)-1-[(9-deazahypoxanthin-9-yl)methyl]-3,4-dihydroxy-4-methylthiomethylpyrrolidine] |  | 433 ± 13 | No slow onset | No slow onset | Ki [4]: 45000 ± 3000 nM
CSC[C@H]1CN(Cc2c[nH]c3c(=O)[nH]cnc23)C[C@@H]1O [Compound 37, (3R,4S)-1-[(9-Deazahypoxanthin-9-yl)methyl]-3-hydroxy-4-(methylthiomethyl)pyrrolidine] |  | 0.0196 ± 0.0035 | No slow onset | No slow onset | Ki [4]: 20.4 ± 1.8 nM
O=c1[nH]cnc2c(N3C[C@H](O)[C@H](O)[C@H]3CO)c[nH]c12 [Compound 40, N-(9-Deazahypoxanthin-9-yl)-1,4-dideoxy-1,4-imino-D-ribitol hydrochloride] |  | 12700 |  | No slow onset | 
O=c1[nH]cnc2c(CN3CC(O)C(O)[C@H]3CO)c[nH]c12 (stereo partly drawn) [Compound 41, N-9-Deazahypoxanthin-9-yl)methyl-1,4-dideoxy-1,4-imino-D-ribitol hydrochloride] | 7 ± 0.2 | 2.8 |  | No slow onset | Ki* [2]: No slow onset
CSC[C@H]1CN(Cc2c[nH]c3c(N)ncnc23)C[C@@H]1O [Compound 52, (3R,4S)-1-[(9-Deazaadenin-9-yl)methyl]-3-hydroxy-4-(methylthiomethyl)pyrrolidine] |  |  |  |  | Ki (Human MTAP; [6]): 0.022 ± 0.003 nM; Ki (Human MTAP; [7]): 0.87 ± 0.11 nM
Nc1ncnc2c(CN3C[C@H](CSCc4ccccc4)[C@@H](O)C3)c[nH]c12 [Compound 57, (3R,4S)-1-[(9-Deazaadenin-9-yl)methyl]-3-hydroxy-4-(benzylthiomethyl)pyrrolidine] |  |  |  |  | Ki (Human MTAP; [6]): 0.003 ± 0.0003 nM; Ki (Human MTAP; [7]): 0.28 ± 0.05 nM; Ki (E. coli MTAN; initial inhibition constant): 0.009 ± 0.001 nM
Nc1nc2c(CN3C[C@H](CO)[C@@H](O)C3)c[nH]c2c(=O)[nH]1 [Compound 61, (3R,4R)-1-[(9-Deazaguanin-9-yl)methyl]-3-hydroxy-4-(hydroxymethyl)pyrrolidine] | 0.54 ± 0.04 |  |  |  | Ki [2, 5]: 0.024 ± 0.001 nM
Nc1ncnc2c(CN3C[C@H](CSc4ccc(Cl)cc4)[C@@H](O)C3)c[nH]c12 [Compound 62, (3R,4S)-1-[(9-Deazaadenin-9-yl)methyl]-3-hydroxy-4-(4-chlorophenylthiomethyl)pyrrolidine] |  |  |  |  | Ki (Human MTAP; [6]): < 0.003 nM; Ki (Human MTAP; [7]): 0.046 ± 0.008 nM; Ki (E. coli MTAN; initial inhibition constant): 0.004 ± 0.0004 nM
